Test results taken from US10993933B2, “Oral dosage forms of bendamustine” (ASTELLAS DEUTSCHLAND GMBH, priority 2010, dated 2021).
Structures can show the parent of a compound that is named as a salt.

Legend:
[1] = Bendamustine hydrochloride solubility in carriers (HPLC of supernatant); assay type: physicochemical
Procedure: Due to the necessity to determine if part of the bendamustine hydrochloride added to the vehicle is dissolved, in order to verify a possible degradation, an analytical procedure, from sample preparation to its analysis, was developed.
Essentially, it consisted in the preparation of a supersaturated solution of bendamustine hydrochloride in the oil: the minimum amount of bendamustine hydrochloride suitable to generate sedimentation of solid particle on the bottom of the vessel was added to the oil warmed at 40° C.; this solution was electromagnetically stirred for several days (about 4) at room temperature and then centrifuged at 3000 rpm for 15 minutes. The supernatant was analysed by HPLC versus a solution of bendamustine hydrochloride working standard (0,551 mg/ml).
Essentially, it consisted in the preparation of a supersaturated solution of bendamustine hydrochloride in the vehicle: the minimum amount of bendamustine hydrochloride suitable to generate sedimentation of solid particle on the bottom of the vessel was added to the oil heated to about 5° C. above its melting point; this solution was kept in static condition at this temperature overnight, to allow sedimentation on the bottom. The supernatant was analysed by HPLC versus a solution of API working standard (0.551 mg/ml).
In table 21.a below, the results of the analysis are reported expressed as mg of bendamustine hydrochloride completely dissolved in about 1 g of solution of the carrier selected.
Further samples for the solubility evaluation were prepared by adding, under stirring, a quantity of active ingredient (API) suitable to generate a phase segregation to a determined amount of each carrier. The samples were prepared at a temperature slightly above the melting point of each carrier (except for liquid vehicles) and kept at this temperature for about 5 hrs (estimated manufacturing process time). Where applicable, each sample was centrifuged to accelerate phase segregation; an amount of the supernatant, corresponding to the filling weight of a capsule (about 600 mg), was withdrawn and evaluated for assay to determine the amount of API actually dissolved.
Each solubility value is related to a specific temperature, corresponding to the value set for the filling into capsules (see table 14).

[2] = Solubility of bendamustine hydrochloride in water and organic solvents; assay type: physicochemical
From the text: Therefore it is not surprising that the oral bendamustine compositions, as investigated by Preiss et al. and Weber gave rise to relatively poor bioavailability results and a large inter-individual variability.

[3] = cited from earlier work
[4] = B6D2F1-mice, absorption from the gastro-intestinal tract; cited from earlier work
[5] = carrier CREMOPHOR A6 (Semisolid at room temperature), suspension weight 1015.3 mg
[6] = carrier CREMOPHOR A25 (Semisolid at room temperature), suspension weight 995.6 mg
[7] = carrier CREMOPHOR EL (Liquid at room temperature), suspension weight 1026.8 mg
[8] = carrier CREMOPHOR RH40 (Semisolid at room temperature), suspension weight 1000.4 mg
[9] = carrier LABRAFAC PG (Liquid at room temperature), suspension weight 1961.5 mg
[10] = carrier LABRAFIL M1944 CS (Liquid at room temperature), suspension weight 1011.7 mg
[11] = carrier LABRAFIL M2125 (Liquid at room temperature), suspension weight 765.2 mg
[12] = carrier LAUROGLYCOL 90 (Liquid at room temperature), suspension weight 993.9 mg
[13] = carrier LAUROGLYCOL FCC (Liquid at room temperature), suspension weight 1934.8 mg
[14] = carrier MIGLYOL 810 (Liquid at room temperature), suspension weight 602.8 mg
[15] = carrier MIGLYOL 812 (Liquid at room temperature), suspension weight 1044.1 mg
[16] = carrier MIGLYOL 829 (Liquid at room temperature), suspension weight 1865.0 mg
[17] = carrier MIGLYOL 840 (Liquid at room temperature), suspension weight 599.9 mg
[18] = carrier PLUROL oleique CC497 (Liquid at room temperature), suspension weight 1005.8 mg
[19] = carrier PLURONIC L44 NF INH (Liquid at room temperature), suspension weight 1987.1 mg
[20] = carrier SOFTIGEN 701 (Liquid at room temperature), suspension weight 1079.0 mg
[21] = carrier SOFTISAN 645 (Liquid at room temperature), suspension weight 1014.0 mg
[22] = carrier TRANSCUTOL HP (Liquid at room temperature), suspension weight 1003.1 mg

SMILES: Cn1c(CCCC(=O)O)nc2cc(N(CCCl)CCCl)ccc21 [bendamustine hydrochloride]
- Solubility ([1]; carrier BRIJ C2 (Semisolid), T 45 ° C.): 0.004 mg API/mg Solution
- Solubility ([1]; carrier BRIJ L4 (Liquid), T 25 ° C.): 0.008 mg API/mg Solution
- Solubility ([1]; carrier BRIJ L23 (Solid), T 45 ° C.): 0.004 mg API/mg Solution
- Solubility ([1]; carrier BRIJ O10 (Semisolid), T 45 ° C.): 0.007 mg API/mg Solution
- Solubility ([1]; carrier BRIJ O20 (Semisolid), T 45 ° C.): 0.006 mg API/mg Solution
- Solubility ([1]; carrier BRIJ S10 (Solid), T 42 ° C.): 0.003 mg API/mg Solution
- Solubility ([1]; carrier BRIJ S20 (Solid), T 50 ° C.): 0.008 mg API/mg Solution
- Solubility ([1]; carrier BRIJ S721 (Solid), T 45 ° C.): 0.004 mg API/mg Solution
- % API [1, 5]: 0.00%
- API recovered [1, 5]: 0.00 mg
- % API [1, 6]: 0.21%
- API recovered [1, 6]: 2.10 mg
- % API [1, 7]: 0.5%
- API recovered [1, 7]: 5.13 mg
- % API [1, 8]: 0.77%
- API recovered [1, 8]: 7.72 mg
- Solubility ([1]; carrier GELUCIRE 44/14 (Semisolid), T 45 ° C.): 0.004 mg API/mg Solution
- Solubility ([1]; carrier GLYCEROX HE (Liquid), T 25 ° C.): 0.005 mg API/mg Solution
- % API [1, 9]: 0.001%
- API recovered [1, 9]: 0.01 mg
- % API [1, 10]: 0.04%
- API recovered [1, 10]: 0.38 mg
- % API [1, 11]: 0.02%
- API recovered [1, 11]: 0.17 mg
- % API [1, 12]: 0.06%
- API recovered [1, 12]: 0.61 mg
- % API [1, 13]: 0.02%
- API recovered [1, 13]: 0.33 mg
- % API [1, 14]: 0.01%
- API recovered [1, 14]: 0.04 mg
- % API [1, 15]: 0.003%
- API recovered [1, 15]: 0.03 mg
- % API [1, 16]: 0.001%
- API recovered [1, 16]: 0.03 mg
- % API [1, 17]: 0.01%
- API recovered [1, 17]: 0.06 mg
- Solubility ([1]; carrier MIRJ S8 (Semisolid), T 42 ° C.): 0.010 mg API/mg Solution
- Solubility ([1]; carrier MIRJ S40 (Solid), T 50 ° C.): 0.005 mg API/mg Solution
- Solubility ([1]; carrier MIRJ S100 (Semisolid), T 50 ° C.): 0.009 mg API/mg Solution
- % API [1, 18]: 0.21%
- API recovered [1, 18]: 2.12 mg
- Solubility ([1]; carrier PLURONIC 103 (Semisolid), T 45 ° C.): 0.002 mg API/mg Solution
- Solubility ([1]; carrier PLURONIC F108 (Solid), T 70 ° C.): 0.006 mg API/mg Solution
- Solubility ([1]; carrier PLURONIC L35 (Liquid), T 25 ° C.): 0.000 mg API/mg Solution
- Solubility ([1]; carrier PLURONIC L43 (Liquid), T 25 ° C.): 0.000 mg API/mg Solution
- % API [1, 19]: 0.18%
- API recovered [1, 19]: 3.64 mg
- Solubility ([1]; carrier PLURONIC L64 (Liquid), T 25 ° C.): 0.000 mg API/mg Solution
- Solubility ([1]; carrier PLURONIC P85 (Semisolid), T 50 ° C.): 0.002 mg API/mg Solution
- Solubility ([1]; carrier PLURONIC P105 (Semisolid), T 50 ° C.): 0.002 mg API/mg Solution
- % API [1, 20]: 0.29%
- API recovered [1, 20]: 5.42 mg
- % API [1, 21]: 0.16%
- API recovered [1, 21]: 1.60 mg
- Solubility ([1]; carrier SOLUTOL HS15 (Semisolid), T 35 ° C.): 0.007 mg API/mg Solution
- Solubility ([1]; carrier SPEZIOL TPGS (Semisolid), T 45 ° C.): 0.002 mg API/mg Solution
- % API [1, 22]: 1.00%
- API recovered [1, 22]: 10.01 mg
- Solubility ([1]; carrier TWEEN 20 (Liquid), T 25 ° C.): 0.008 mg API/mg Solution
- Solubility ([1]; carrier TWEEN 40 (Liquid), T 25 ° C.): 0.007 mg API/mg Solution
- Solubility ([1]; carrier TWEEN 61 (Semisolid), T 45 ° C.): 0.019 mg API/mg Solution
- Solubility ([1]; carrier TWEEN 65 (Liquid), T 45 ° C.): 0.007 mg API/mg Solution
- Solubility ([1]; carrier TWEEN 81 (Liquid), T 25 ° C.): 0.004 mg API/mg Solution
- bendamustine hydrochloride recovered in a supersaturated solution in liquid or semisolid oily vehicles ([1]; selected carriers): < 1%
- solubility in a range of organic solvents [2]: slightly or very slightly soluble
- solubility in ethanol and methanol [2]: good solubility
- solubility in water ([2]; pH of 2.0): sparingly soluble
- mean oral bioavailability ([3]; 7 patients, oral capsules vs intravenous, 4.2-5.5 mg/kg): 57%
- time to maximal plasma levels after oral administration ([3]; patients, oral capsules of 25 mg, 250-350 mg): ≤ 1 h
- bioavailability [4]: about 40%
